US7754462B2, “Enzyme catalysis in the presence of ionic liquids” (priority 2000, dated 2010)

Experiments:
Assay type in all cases: biochemical
[1] = target: T1, Lipase from Candida antarctica (Type B) (Moesziomyces antarcticus, UniProt P41365); experiment: Enantioselective acylation of R,S-1-phenylethanol in ionic liquids; conditions: 24° C., 3-4 days
Description: (§1) 4.4 ml of an ionic liquid in accordance with Table 3 or tert-butylmethyl ether are mixed with 122 μl of vinyl acetate and 54 μl of 1-phenyl ethanol so that a substrate solution with approximately 0.1 mol/l of 1-phenyl ethanol and 0.3 mol/l of vinyl acetate is obtained. Each 1 mg of lyophilised lipase (>120 U/mg) is mixed with 0.4 ml of substrate solution, thoroughly mixed and incubated at 24° C. for 3-4 days, shaking slightly.
(§2) This hexane/isopropanol extract is used to determine the concentrations and enantiomer ratios of 1-phenyl ethanol and 1-phenylethyl acetate using HPLC. The conversion and the enantiomer excess were calculated from these concentrations (see Table 3).

[2] = tested on: Lipase from Alcaligines sp.; experiment: Enantioselective acylation of R,S-1-phenyl ethanol in ionic liquids
Description: as §1, §2

[3] = tested on: Lipase from Candida antarctica (Type A); experiment: as above
Description: as §1, §2

[4] = tested on: Lipase from Pseudomonas sp.; experiment: as above; design: key: (+) good to better; (±) the same
Description: as §1
as §2, with “For further processing 100 μl of the reaction formulation is mixed with 1 ml of n-hexane/Isopropanol (97.5/2.5 v/v) and mixed thoroughly. This” for “This”
Each 3 mg of lyophilised lipase (400 U/mg) is mixed with 0.4 ml of a substrate solution as in Example 3. The further procedure corresponds to that described in Example 3.

[5] = target: T2, Formate dehydrogenase from Candida boidinii (FDH) (Candida boidinii, UniProt O13437); experiment: NAD reduction by formate dehydrogenase; enzyme activity with buffer replaced by ionic liquid; design: key: (+) good to better; (±) the same; conditions: 25° C., pH 7
T2 sequence (O13437 1-364): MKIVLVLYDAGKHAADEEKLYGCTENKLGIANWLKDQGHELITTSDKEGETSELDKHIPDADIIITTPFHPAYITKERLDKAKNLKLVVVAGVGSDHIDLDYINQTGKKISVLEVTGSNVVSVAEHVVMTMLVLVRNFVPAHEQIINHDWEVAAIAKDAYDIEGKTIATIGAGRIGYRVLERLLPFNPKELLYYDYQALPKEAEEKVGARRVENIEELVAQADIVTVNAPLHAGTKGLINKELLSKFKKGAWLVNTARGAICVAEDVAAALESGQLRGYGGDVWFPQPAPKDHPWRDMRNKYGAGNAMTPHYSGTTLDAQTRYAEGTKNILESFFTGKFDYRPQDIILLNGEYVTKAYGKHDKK
Description: The FDH-catalysed oxidation of formic acid to carbon dioxide by the reduction of nicotinamide adenine dinucleotide (NAD^+ to NADH+H^+) is used as the test reaction to determine the enzyme activity. In the enzyme assay the increase in NADH with time at 25° C. is detected photometrically at a wavelength of 340 nm.
Composition of the enzyme assay: 1 ml buffer solution (50 mM triethanolamine hydrochloride, 1 mM dithiothreitol, hydrochloric acid) pH 7 is mixed with 0.1 ml of aqueous sodium formate solution (2.4 M) and 0.1 ml of enzyme solution (0.7 mg/ml, 8.4 U). The enzyme solution already contains the cofactor NAD (6 mM).

[6] = target: T1, Lipase from Candida antarctica (Type B); experiment: Recycling of the lipase in ionic liquid by distillation; conditions: 40 min at 40° C.; distillation 85° C., 0.06 mbar
Description: 600 mg of lyophilised lipase (approx. 10 U/mg) is mixed with 4 ml of ionic liquid (BMIm^+(CF3SO2)2N^−), 1.2 ml of vinyl acetate and 0.7 ml 1-phenyl ethanol and thoroughly mixed. The reaction mixture is incubated for 40 min at 40° C.
The non-converted educts and the reaction product […] is then distilled off (85° C., 0.06 mbar).
The enzyme/ionic liquid mixture is cooled, re-mixed with 1.2 ml of vinyl acetate and 0.7 ml of 1-phenyl ethanol and again incubated for 40 min at 40° C.

T1 sequence (P41365 26-342): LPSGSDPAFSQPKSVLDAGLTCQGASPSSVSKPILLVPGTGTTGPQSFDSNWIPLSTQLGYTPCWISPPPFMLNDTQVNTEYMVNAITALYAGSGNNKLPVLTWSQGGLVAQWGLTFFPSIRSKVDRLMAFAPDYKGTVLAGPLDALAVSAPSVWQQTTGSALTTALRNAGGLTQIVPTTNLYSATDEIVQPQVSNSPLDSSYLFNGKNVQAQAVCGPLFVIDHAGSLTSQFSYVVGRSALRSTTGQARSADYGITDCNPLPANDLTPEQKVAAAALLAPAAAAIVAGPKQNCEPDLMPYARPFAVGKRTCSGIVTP

| Compound | Conversion compared to the standard reaction in tert-butylmethyl ether [1] | Enantiomer excess compared to the standard reaction in tert-butylmethyl ether [1] | Conversion compared to the standard reaction in tert-butylmethyl ether [2] | Enantiomer excess compared to the standard reaction in tert-butylmethyl ether [2] | Conversion compared to the standard reaction in tert-butylmethyl ether [3] | Enantiomer excess compared to the standard reaction in tert-butylmethyl ether [3] | Conversion compared to the standard reaction in tert-butylmethyl ether [4] | Enantiomer excess compared to the standard reaction in tert-butylmethyl ether [4] | enzyme activity compared with the standard reaction in the buffer solution ([5]; 25 vol % ionic liquid) | enzyme activity compared with the standard reaction in the buffer solution ([5]; 50 vol % ionic liquid) | enzyme activity compared with the standard reaction in the buffer solution ([5]; 75 vol % ionic liquid) | lipase activity on repeated incubation and distilling off [6] |
| --- | --- | --- | --- | --- | --- | --- | --- | --- | --- | --- | --- | --- |
| CCCCn1cc[n+](C)c1.F[B-](F)(F)F [BMIm^+ BF4^−, Butyl-methyl-imidazolium BF4^−] | + | + | ± | + | ± | + | – | – | – | – | – | – |
| CCCCCCCCC[n+]1ccn(C)c1.F[P-](F)(F)(F)(F)F [NMIm^+ PF6^−, Nonyl-methyl-imidazolium PF6^−] | ± | + | – | – | + | + | – | – | – | – | – | – |
| CCCCn1cc[n+](C)c1.F[P-](F)(F)(F)(F)F [BMIm^+ PF6^−, Butyl-methyl-imidazolium PF6^−] | – | – | ± | + | + | + | – | – | – | – | – | – |
| CCCCCCn1cc[n+](C)c1.F[B-](F)(F)F [HMIm^+ BF4^−, Hexyl-methyl-imidazolium BF4^−] | ± | + | ± | + | + | + | – | – | – | – | – | – |
| CCCC[n+]1ccc(C)cc1.F[B-](F)(F)F [4-MBP^+ BF4^−, 4-methyl-butyl-pyridinium BF4^−] | + | + | ± | + | – | – | ± | + | – | – | – | – |
| CCCCCCCCn1cc[n+](C)c1.F[B-](F)(F)F [OMIm^+ BF4^−, Octyl-methyl-imidazolium BF4^−] | + | + | ± | + | + | ± | – | – | – | – | – | – |
| Methyl-methyl-imidazolium-methyl sulphate [MMIm^+ MeSO4^−] | – | – | – | – | – | – | – | – | ± | + | + | – |
| CCCCn1cc[n+](C)c1.O=S(=O)([N-]S(=O)(=O)C(F)(F)F)C(F)(F)F [BMIm^+ (CF3SO2)2N^−] | + | + | – | – | – | – | + | + | – | – | – | without the lipase activity diminishing |
| CCCCn1cc[n+](C)c1.O=S(=O)([O-])C(F)(F)F [BMIm^+ CF3SO3^−, Butyl-methyl-imidazolium-trifluoro methane sulphonate (=triflate)] | + | + | ± | + | + | + | + | + | – | – | – | – |
